According to US9017730B2 (The Regents of the University of California, priority 2010, dated 2015):

How the values were obtained:
microbes = assay: in vitro antimicrobial activity, organism not given; type: cell-based; conditions: neutral pH (~7)
S. aureus 6538 [1] = assay: porcine infection prevention open-wound model; conditions: solution (10 mg/mL) applied prior to inoculation
Method: Full-thickness 1 cm diameter wounds were made in the dorsal and lateral thorax of a 25-35 kg Yorkshire-cross pig. K180L20 hydrogel (or control buffer) was applied, and after four hr, wounds were inoculated with S. aureus. Wounds were assessed after 48 hr for bacterial counts by standard microbiology methods.

[2] = pig, in vivo
[3] = critical aggregation concentration (CAC) via pyrene fluorescence; type: physicochemical; conditions: in water
Method: Polypeptide solutions (2 mL) were dispersed in water at a range of concentrations (2.0×10^−3 to 2.0×10^−12 M). A stock pyrene solution was made by dissolving pyrene in acetone (6.0×10^−2 M). Next, an appropriate amount of the pyrene stock solution was added to give a final concentration of 12×10^−7 M in water and the acetone was evaporated off. To each polypeptide solution, 2.0 mL of the aqueous stock pyrene solution was added to afford a final concentration of 6.0×10^−7 M. Then, each solution was allowed to equilibrate overnight prior to measurements. To record fluorescence spectra, 3.0 mL of each polypeptide solution was added to a 4.0 mL polystyrene covet. The excitation spectra were recorded within a range of 300-360 nm at an emission wavelength of 390 nm. All spectra were run with an integration time of 1 sec/0.5 nm. The ratio of the intensities of two peaks I338/I333 was plotted as a function of polypeptide concentration (M) for each sample. The CACs were determined as the intersection of the extrapolated linear fits of the plot.

[4] = pig, in vivo; remark: listed apart in the source
S. aureus 6538 [5] = assay: rodent model of prevention of wound infection (subcutaneous polypropylene mesh); conditions: solution
Method: (§2) In this model, a mesh pre-soaked with phosphate buffered saline (PBS) or K180L20 was inserted subcutaneously into the dorsal cervical region of Sprague-Dawley rats, followed by 10^6 S. aureus or P. aeruginosa. Additional PBS or K180L20 was added, wounds closed, and animals returned to cages for 48 hr.

[6] = test system: P. aeruginosa (Clinical Pig Isolate); assay: as above; conditions: solution
Method: as §2

S. aureus = assay: in vitro antimicrobial activity, incubated with bacteria for 30 min prior to plating for growth; type: cell-based
Method: (§1) K180L20 was incubated with bacteria for 30 min prior to plating for growth;

P. aeruginosa = assay: as above; type: cell-based
Method: as §1

S. epidermidis = assay: as above; type: cell-based; conditions: FIG. 4
Method: as §1

E. coli = assay: as above; type: cell-based
Method: as §1

[7] = inflammation by histology in rodent infection model; type: in vivo, rats; conditions: rodent open wounds, copolypeptide in solution, versus control treatments

Row | Substance | antimicrobial activity at neutral pH (microbes) | prevention of microbial infection, S. aureus (S. aureus 6538 [1]) | inflammation, necrosis, and epithelial coverage versus control-treated wounds [2] | critical aggregation concentration (CAC) [3] | mononuclear inflammation, edema, or hemorrhage versus controls [4] | neutrophilic inflammation, severity versus controls [4] | serocellular exudates, severity versus controls [4] | reduction in bacterial population, S. aureus (S. aureus 6538 [5]; 20 μg/ml of copolypeptide) | reduction in bacterial population, S. aureus (S. aureus 6538 [5]; 2 mg/ml) | reduction in bacterial population, P. aeruginosa ([6]; 20 μg/ml of copolypeptide) | reduction in bacterial population, P. aeruginosa ([6]; 2 mg/ml) | reduction of bacteria, S. aureus (S. aureus; 10 μg/ml) | antimicrobial activity against S. aureus (S. aureus; FIG. 4) | reduction of bacteria, P. aeruginosa (P. aeruginosa; 10 μg/ml) | antimicrobial activity against P. aeruginosa (P. aeruginosa; FIG. 4) | antimicrobial activity against S. epidermidis (S. epidermidis) | reduction of bacteria, E. coli (E. coli; 10 μg/ml) | antimicrobial activity against E. coli (E. coli; FIG. 4) | inflammation, histopathological evidence [7]
1 | Poly(L-glutamate-Na)54-b-poly(rac-leucine)20 [E54(rac-L)20] | low antimicrobial activity |  |  |  |  |  |  |  |  |  |  |  |  |  |  |  |  |  | 
2 | Poly(L-Lysine.HCl)55-b-poly(rac-Leucine)20 [K55(rac-L)20] |  | fully prevented microbial infection | similar | 8.1 µM | No differences | minimally less severe | mildly | 1-3 log | complete (or near complete) reduction | 1-3 log | complete (or near complete) reduction | reduction of bacteria | substantial antimicrobial activity | reduction of bacteria | substantial antimicrobial activity | substantial antimicrobial activity | reduction of bacteria | substantial antimicrobial activity | at or below the level of control treatments
